Experimental data taken from patent publication US6825348B2, “Antiviral compounds” (Academia Sinica, priority 2002, dated 2004).
Values after ≈ are worked out from the molar mass of the structure shown. Read-outs that look alike come from different tables or passages of the source.

Columns and labels:
[1] = test system: Vero cell thymidine kinase; assay: Phosphorylation of nucleosides by Vero cell thymidine kinase; assay type: biochemical; settings: for Km: apparent Km, 37° C., pH 7.5; for rel. Vmax, Vero cell thymidine kinase: relative to thymidine = 1.0 × 10^2
HSV thymidine kinase = HSV thymidine kinase (Human herpesvirus 1, UniProt P0DTH5); assay: Phosphorylation of nucleosides by HSV thymidine kinase; assay type: biochemical
HSV thymidine kinase, sequence (P0DTH5 whole entry, looked up): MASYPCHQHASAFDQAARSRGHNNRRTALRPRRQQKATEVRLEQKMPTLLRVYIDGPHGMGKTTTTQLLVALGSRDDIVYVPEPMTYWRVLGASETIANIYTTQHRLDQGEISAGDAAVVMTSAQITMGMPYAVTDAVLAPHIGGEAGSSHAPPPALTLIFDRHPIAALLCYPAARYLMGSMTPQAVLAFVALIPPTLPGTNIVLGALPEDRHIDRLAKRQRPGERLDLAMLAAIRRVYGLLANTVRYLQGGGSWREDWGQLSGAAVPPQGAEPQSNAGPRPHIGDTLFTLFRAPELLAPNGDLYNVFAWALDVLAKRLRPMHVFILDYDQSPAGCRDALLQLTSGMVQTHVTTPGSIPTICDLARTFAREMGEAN

[2] = test system: thymidine kinase-positive (TK+) varicella-zoster virus (YS); assay: Inhibition of TK+ VZV cytopathogenicity in Vero cell culture; assay type: cell-based
[3] = test system: thymidine kinase-deficient (TK−) varicella-zoster virus (YS/R); assay: microbe, parasite or virus in culture; assay type: cell-based; settings: Human alphaherpesvirus 3, Vero, read-out: IC50 TK−VZV (YS/R)
[4] = Lipophilicity, 1-octanol/water partition coefficient; settings: 1-octanol/water (0.10 M phosphate buffer)
HSV-1 (KOS) = assay: Anti-HSV-1 activity in vivo, HSV-1-induced mortality in NMRI mice; settings: 6 days; for mean day of animal death / mean day of symptom initiation: terminated day 21; for responders at 100 mg/kg / responders at 150 mg/kg / responders at 250 mg/kg: Human alphaherpesvirus 1, ip, 504 h
[5] = test system: herpes simplex type 1 virus (HSV-1) (KOS); assay: Inhibition of HSV-1 cytopathogenicity in Vero cell culture; assay type: cell-based; settings: Human alphaherpesvirus 1, Vero, read-out: IC50 HSV-1 (KOS)
[6] = Solubility in water (phosphate buffer, UV absorbance); settings: phosphate buffer, pH 6.8, aqueous buffer, thermodynamic from solid
Vero cells = settings: African green monkey
[7] = test system: human cytomegalovirus (AD-169); assay: Inhibition of HCMV cytopathogenicity in Vero cell culture; assay type: cell-based; settings: Human betaherpesvirus 5, AD169; Vero cell culture; 50% inhibition of cytopathogenicity; for 1:1 mixtures IC50 refers to known antiviral drugs; read-out: IC50 HCMV (AD-169)
HeLa cells = settings: human
HIV-1 (IIIB) = assay: microbe, parasite or virus in culture; assay type: cell-based; settings: Human immunodeficiency virus 1, IIIB; MT4 cells, average of duplicates; read-out: IC50 HIV-1 (IIIB)
HIV-2 (LAV-2) = assay: Inhibition of HIV-2 cytopathogenicity in MT4 cells; assay type: cell-based, human immunodeficiency virus; settings: Human immunodeficiency virus 2; MT4 cells, average of duplicates; read-out: IC50 HIV-2 (LAV-2)
[8] = test system: moloney murine sarcoma virus (MSV); assay: Inhibition of MSV cytopathogenicity in CEM cells (cell-protection assay); assay type: cell-based; settings: Moloney murine sarcoma virus, CCRF-CEM; CEM cells, average of duplicates; read-out: IC50 MSV
MT4 cells = assay: Toxicity toward MT4 cells
CEM cells = assay: Toxicity toward CEM cells

Compound	Km [1] [µM]	rel. Vmax, Vero cell thymidine kinase [1]	IC50 TK+VZV (YS) [2] [µg/mL]	IC50 [3] [µg/mL]	logP at […] [4]	IC50 [5] [µg/mL]	solubility at 20 h [6] [µg/mL]	Vero cell, concentration causing microscopically visible change or disruption in about 50% of the cell sheet (Vero cells) [µg/mL]	IC50 [7] [µg/mL]	HeLa cell, concentration causing microscopically visible change or disruption in about 50% of the cell sheet (HeLa cells) [µg/mL]	further results
Cc1cn([C@H]2C[C@H](O)[C@@H](CO)O2)c(=O)[nH]c1=O [thymidine]	1	1.0 × 10^2									
Nc1nc2ncn(COCCO)c2c(=O)[nH]1 [Compound 9, 7-[(2-Hydroxyethoxy)methyl]guanine]	18.3	12.0	13 (≈ 57.7 µM)	38 (≈ 169 µM)	-0.6	1.1 (≈ 4.88 µM)	320 (≈ 1420 µM)	99	16 (≈ 71 µM)	114	rel. Vmax, HSV thymidine kinase (HSV thymidine kinase): 28.0; mean day of animal death (HSV-1 (KOS); 100 mg/kg/day i.p.): 14.1 ± 0.8 days; mean day of symptom initiation (HSV-1 (KOS); 100 mg/kg/day i.p.): 10.9 ± 0.6 days; mean day of animal death (HSV-1 (KOS); 150 mg/kg/day i.p.): 16.0 ± 1.5 days; mean day of symptom initiation (HSV-1 (KOS); 150 mg/kg/day i.p.): 13.0 ± 1.1 days; mean day of animal death (HSV-1 (KOS); 250 mg/kg/day i.p.): 18.5 ± 1.0 days; mean day of symptom initiation (HSV-1 (KOS); 250 mg/kg/day i.p.): 15.1 ± 1.2 days; responders at 100 mg/kg (HSV-1 (KOS); 100 mg/kg/day i.p., read-out: percentage of HSV-1-infected mice alive at day 21 postinfection): 66%; responders at 100 mg/kg (HSV-1 (KOS); 100 mg/kg/day i.p., read-out: percentage of HSV-1-infected mice without symptoms at day 21 postinfection): 48%; responders at 150 mg/kg (HSV-1 (KOS); 150 mg/kg/day i.p., read-out: percentage of HSV-1-infected mice alive at day 21 postinfection): 78%; responders at 150 mg/kg (HSV-1 (KOS); 150 mg/kg/day i.p., read-out: percentage of HSV-1-infected mice without symptoms at day 21 postinfection): 57%; responders at 250 mg/kg (HSV-1 (KOS); 250 mg/kg/day i.p., read-out: percentage of HSV-1-infected mice alive at day 21 postinfection): 90%; responders at 250 mg/kg (HSV-1 (KOS); 250 mg/kg/day i.p., read-out: percentage of HSV-1-infected mice without symptoms at day 21 postinfection): 67%
Nc1nc2c(ncn2CCOCP(=O)(O)O)c(=O)[nH]1 [PMEG 27, 9-[2-(phosphonomethoxy)ethyl]guanine, reference compound]			0.040 (≈ 0.138 µM)	0.06 (≈ 0.207 µM)	0.14	4.6 (≈ 15.9 µM)	360 (≈ 1240 µM)	7.0	0.35 (≈ 1.21 µM)	9.1	IC50 (HIV-1 (IIIB)): 16 µg/mL (≈ 55.3 µM); IC50 (HIV-2 (LAV-2)): 18 µg/mL (≈ 62.2 µM); IC50 [8]: 0.19 µg/mL (≈ 0.657 µM); MT4 cell, concentration reducing the number of viable uninfected cells by 50% (MT4 cells): 16 µg/mL; CEM cell, concentration reducing the number of viable uninfected cells by 50% (CEM cells): 12 µg/mL
